Data set [1] is described as follows: ABTS cation radical scavenging activity. Conditions: 100 μM, 2 min in the dark. On the procedure: To measure the scavenging effects of analogs 1–12 on ABTS^+ radicals, ABTS was initially treated with potassium persulfate to yield ABTS^•+. The formed ABTS^+ radical solution was mixed with test samples (analogs 1–12 and Trolox [positive reference standard]; final concentration: 100 μM), and absorbance was measured at 732 nm after storing for 2 min in the dark to determine %ABTS^•+-scavenging ability.
ABTS^•+ was prepared by mixing equal amounts of ABTS (14 mM in H2O) and K2S2O8 (4.9 mM in H2O) and storing in the dark at 20 °C for 16 h. Prior to use, the absorbance of the prepared ABTS^•+ solution was adjusted to 0.7 ± 0.02 at 732 nm by dilution with methanol. A cosolvent (EtOH:DMSO = 10:1 [v/v]) was used to prepare solutions of the test samples (analogs 1–12 and Trolox [positive reference standard]). All test samples were used at a final concentration of 100 μM. The test sample solution (10 μL) was mixed with the adjusted ABTS^•+ solution (90 μL) in each well of a 96-well plate, and the mixture was kept in the dark at 20 °C for 2 min. The absorbance was recorded at 732 nm at 1 min intervals for 10 min using a VE microplate reader. The percentage of radical-scavenging activity was calculated using the formula % radical-scavenging activity = [(Abscontrol − Abssample)/Abscontrol] × 100, where Abssample and Abscontrol are absorbances of the sample and control, respectively.

The nature of data set [2]: DPPH radical-scavenging activity. Conditions: 500 μM, 30 min in the dark. On the procedure:
For measuring the scavenging effect of analogs 1–12 on DPPH radicals, test samples (analogs 1–12 and ascorbic acid [positive reference standard]; final concentration: 500 μM) were mixed with a DPPH solution, and absorbance was measured at 517 nm after storing for 30 min in the dark to determine % DPPH radical-scavenging ability.
L-Ascorbic acid was used as a positive control. Test samples (analogs 1–12 and L-ascorbic acid; 5 mM, 20 μL) dissolved in DMSO were added to each well of a 96-well plate containing the DPPH methanol solution (0.2 mM, 180 μL), and the plate was placed in the dark at 20 °C for 30 min. The absorbance was recorded at 517 nm using a VE microplate reader to calculate DPPH radical-scavenging activity.

The next data set has as its target mushroom tyrosinase (Agaricus bisporus, UniProt C7FF04). The data set is described as follows: Mushroom tyrosinase inhibition assay (dopachrome, 475 nm). It is filed as biochemical. Conditions: substrate L-tyrosine. On the procedure:
The plate was placed at 37 °C for 30 min, and well absorbance was measured at 475 nm to determine the generated dopachrome amounts in each well using a VersaMax® Elisa (VE) microplate reader (Molecular Devices, San Jose, CA, USA).

Data set [3] concerns B16F10 cells. Nature of the data set: Cellular melanin level measurement in B16F10 cells. The format is cell-based, murine. Conditions: 72 h. As for the experimental part: Stimulators comprising 1 μM α-melanocyte-stimulating hormone (α-MSH) and 200 μM 3-isobutyl-1-methylxanthine (IBMX) were administered 1 h after test sample treatment. The effects of analogs 1 and 3 on melanin production were determined by measuring the optical density at 405 nm after 72 h of treatment.
B16F10 cells were seeded at a density of 5000 per well of a 6-well plate, and the plate was cultivated under normal cell culture conditions for 24 h. […] In addition, 200 μM IBMX and 1 μM α-MSH (Alomone Labs™, Jerusalem, Israel) were added to each well and cultivated for 72 h under the normal cell culture conditions. To determine the cellular melanin levels, 1N–NaOH solution (100 μL) was added to each well and then kept at 60 °C for 1 h to lyse the cells. The cell lysates were washed twice with phosphate-buffered saline (PBS) and transferred to a 96-well plate, and the absorbance was recorded at 405 nm using a VE microplate reader to determine the cellular melanin content.

The target of another data set is T1, B16F10 cell tyrosinase (Mus musculus, UniProt P11344).
T1 construct: endogenous in cells; host or cells: B16F10 murine melanoma cells stimulated with α-MSH and IBMX
T1 sequence (P11344 19-533): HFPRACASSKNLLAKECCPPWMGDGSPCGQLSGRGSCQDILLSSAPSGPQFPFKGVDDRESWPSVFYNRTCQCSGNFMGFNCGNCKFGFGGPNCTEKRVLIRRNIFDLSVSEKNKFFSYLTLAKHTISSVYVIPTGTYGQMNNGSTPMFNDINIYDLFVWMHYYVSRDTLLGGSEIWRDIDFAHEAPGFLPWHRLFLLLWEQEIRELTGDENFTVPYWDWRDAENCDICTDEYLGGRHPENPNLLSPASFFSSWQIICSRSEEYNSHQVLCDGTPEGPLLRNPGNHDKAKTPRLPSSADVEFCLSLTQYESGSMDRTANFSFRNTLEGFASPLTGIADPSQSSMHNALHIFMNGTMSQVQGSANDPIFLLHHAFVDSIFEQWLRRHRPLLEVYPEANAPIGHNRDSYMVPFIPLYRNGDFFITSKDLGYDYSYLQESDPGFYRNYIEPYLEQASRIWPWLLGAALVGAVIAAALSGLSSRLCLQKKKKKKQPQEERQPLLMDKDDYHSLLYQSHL
The data set is described as follows: In situ cellular tyrosinase activity in B16F10 cells (L-DOPA staining). The format is cell-based, murine. As for the experimental part:
To identify the in situ cellular tyrosinase inhibitory activity of analogs 1 and 3, B16F10 cells and L-DOPA were used as the experimental target cells and substrate for melanin synthesis, respectively. […] B16F10 cells were photographed after 2 h of treatment with excess L-DOPA, and the darkness of the cells was measured using the CS analyzer program (ATTO, Tokyo, Japan). Analogs 1 and 3 were used at 2, 5, and 10 μM.
After 1 h, the cells were exposed to 1 μM α-MSH and 200 μM IBMX and cultivated under normal cell culture conditions for 72 h. Cultured cells were fixed using a 4% paraformaldehyde solution for 40 min, washed twice with PBS, and permeabilized using 0.1% Triton X-100 for 2 min. L-DOPA solution (2 mM; 500 μL) was added to each well after washing twice with PBS. After the plate was placed for 2 h at 37 °C, the images for cell staining were acquired using a camera attached to a microscope (Motic, Hong Kong).

For data set [4], the target named is T2, B16F10 cellular tyrosinase (Mus musculus, UniProt P11344).
T2 construct: endogenous in cells; host or cells: B16F10 murine melanoma cells stimulated with α-MSH and IBMX
T2 sequence (P11344 19-533): T1 sequence (P11344 19-533)
Nature of the data set: Cellular tyrosinase activity measurement in B16F10 cells. It is filed as cell-based, murine. Conditions: α-MSH + IBMX, 72 h. As for the experimental part:
The cellular tyrosinase inhibitory activity of the test samples was determined by measuring their optical density at 475 nm 72 h after test sample treatment.
B16F10 cells were seeded at a density of 5000 per well of a 6-well plate, and the plate was cultivated under normal cell culture conditions for 24 h. […] Stimulators (200 μM IBMX and 1 μM α-MSH) were added to each well and cultivated for 72 h under normal cell culture conditions. To determine cellular tyrosinase activity, the cells were washed twice with PBS, treated with lysis buffer solution (100 μL) comprising 50 mM phosphate buffer (pH 6.5) (90 μL), 2 mM phenylmethanesulfonyl fluoride (5 μL), and 20% Triton X-100 (5 μL), and incubated at −80 °C for 30 min. After centrifugation (10,000× g, 4 °C, and 10 min), the supernatants (80 μL each) were transferred to each well of a 96-well plate, then 10 mM L-DOPA (20 μL) was added to each well. The absorbance was measured at 475 nm at 1 min intervals for 10 min using a VE microplate reader to determine cellular tyrosinase activity.

For another data set, the system named is HaCaT cells. Nature of the data set: Cytotoxicity assay on HaCaT cells (EZ-Cytox). The format is cell-based, human. Conditions: 2, 5, 10 and 20 μM, 72 h. As for the experimental part:
As keratinocytes are one of the major cells that constitute the epidermis, the effects of analogs 1–3 on HaCaT (immortalized human keratinocytes) cell viability were investigated. Analogs 1–3 were tested at concentrations of 0, 2, 5, 10, and 20 μM, and cell viability was determined 72 h after incubation.
The effect of (Z)-BBTT analogs 1–3 on HaCaT cell viability was examined using EZ-Cytox solution. HaCaT cells were seeded at a density of 1 × 10^3 in each well of a 96-well plate, and the plate was cultivated under normal cell culture conditions for 24 h. Analogs 1–3 were added to each well at concentrations of 0, 2, 5, 10, and 20 μM and then cultivated for 72 h under normal cell culture conditions. An aliquot (10 μL) of the EZ-Cytox solution was added to each well and cultivated for 2 h. Well absorbance was recorded at 450 nm using a VE microplate reader to calculate HaCaT cell viability.

Data set [5] deals with B16F10 cells. The data set is described as follows: Cytotoxicity assay on B16F10 murine melanoma cells (EZ-Cytox). The format is cell-based. Conditions: 1, 2, 5 and 10 μM, 72 h. On the procedure: Cell viability for analogs 1–3 was examined on B16F10 cells at 1, 2, 5, and 10 μM concentrations for 72 h.
The influence of (Z)-BBTT analogs 1–3 on B16F10 cell viability was studied using an EZ-Cytox solution (EZ-1000®, DoGenBio, Seoul, Republic of Korea). B16F10 cells were seeded at a density of 1 × 10^3 in each well of a 96-well plate, and the plate was cultivated under normal cell culture conditions for 24 h. Analogs were added to each well at concentrations of 0, 1, 2, 5, and 10 μM, and then cells were cultivated for 72 h under normal cell culture conditions. An aliquot (10 μL) of the EZ-Cytox solution was added to each well and cultivated for 2 h. Well absorbance was recorded at 450 nm using a VE microplate reader to calculate cell viability.

A short description of data set [6]: ROS-scavenging activity (SIN-1, DCFH). Conditions: 40 μM, SIN-1 10 μM. As for the experimental part:
UV-A radiation induces ROS generation substantially, and oxidative stress accelerates melanin formation in organisms. Thus, the ROS-scavenging ability of (Z)-BBTT analogs was examined to determine whether these analogs have an auxiliary ability to scavenge ROS. 3-Morpholinosydnonimine (SIN-1; 10 μM) was used as a ROS generating substance, and Trolox (40 μM) was used as a positive reference standard.
The test samples ((Z)-BBTT analogs 1–12 and Trolox [positive reference standard]) and 3-morpholinosydnonimine (SIN-1) were dissolved in DMSO and PBS, respectively. To prepare 2′,7′-dichlorodihydrofluorescein (DCFH) solution, PBS (50 mM; 4.9 mL, pH 7.4) and DCFH diacetate (2.5 mM; 0.05 mL) were mixed with esterase (15 units/10 mL; 0.05 mL). After storage for 30 min at 20 °C, the mixture was placed in the dark until further use. SIN-1 (10 µL) was added to each well of a 96-well black plate containing PBS (180 µL) and test sample (10 µL), and the plate was placed in the dark for 5 min. The prepared DCFH solution (50 µL) was added to each well of the black plate. The fluorescence of each well was recorded at 535 nm using a microplate reader (Berthold Advances GmbH & Co., Bad Wildbad, Germany) at an excitation wavelength of 485 nm. The test samples and SIN-1 were tested at final concentrations of 40 and 10 μM, respectively.

Entries after “also recorded” stand apart in the source; their conditions may differ.

Chain of mushroom tyrosinase (C7FF04 2-392): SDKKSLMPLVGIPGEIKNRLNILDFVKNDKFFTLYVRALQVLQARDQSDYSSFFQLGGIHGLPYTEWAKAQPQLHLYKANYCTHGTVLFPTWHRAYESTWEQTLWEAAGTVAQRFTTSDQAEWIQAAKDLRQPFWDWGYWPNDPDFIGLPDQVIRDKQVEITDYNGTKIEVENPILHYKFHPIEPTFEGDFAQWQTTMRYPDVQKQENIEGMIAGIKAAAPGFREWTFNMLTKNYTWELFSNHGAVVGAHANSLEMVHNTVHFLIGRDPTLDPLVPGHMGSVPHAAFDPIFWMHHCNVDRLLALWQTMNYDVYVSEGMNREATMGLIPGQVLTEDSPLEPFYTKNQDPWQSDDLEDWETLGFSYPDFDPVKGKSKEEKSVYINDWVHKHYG

In the case of `COc1ccc(/C=C2\SC(=S)N(Cc3ccccc3)C2=O)cc1O` [Compound 5, (Z)-3-Benzyl-5-(3-hydroxy-4-methoxybenzylidene)-2-thioxothiazolidin-4-one], the “% ABTS^•+ scavenging” value in data set [1] amounted to 71%. The “% DPPH radical-scavenging” value in data set [2] came to 17%.

For the compound `O=C1/C(=C/c2ccc(O)cc2)SC(=S)N1Cc1ccccc1` [Compound 1, (Z)-3-Benzyl-5-(4-hydroxybenzylidene)-2-thioxothiazolidin-4-one], the “inhibitory potency relative to kojic acid (IC50 ratio)” value on mushroom tyrosinase is given as “four-fold lower”. Further, the “stimulator-induced increased melanin content reduced by (fold)” value in the data set with B16F10 cells [3] (10 μM, α-MSH 1 μM + IBMX 200 μM, stimulators alone 5.0-fold increase) stood at 1.9 fold. Also, the “effect on stimulator-induced increase in melanin contents” value with B16F10 cells [3] (2, 5 and 10 μM, concentration-dependent, α-MSH + IBMX) was “significantly decreased”. Also, the “relative dark area of cells compared with kojic acid at the same concentration” value on B16F10 cell tyrosinase (10 μM, L-DOPA staining) is “significantly less than that of kojic acid”. In addition, at B16F10 cell tyrosinase (kojic acid 10 μM, analogs 2, 5 and 10 μM, α-MSH + IBMX, 72 h), the “number of cells strongly stained with melanin” value is given as “reduced the number of strongly stained cells in a concentration-dependent manner”. In data set [4] (10 μM), the “inhibition of cellular tyrosinase activity compared with kojic acid” value is recorded as “more strongly than kojic acid”. In addition, in data set [4] (2, 5 and 10 μM, concentration-dependent), the “effect on stimulator-enhanced cellular tyrosinase activity” value is given as “significantly decreased”. The “cytotoxicity to HaCaT cells” value in the data set on HaCaT cells is recorded as “no perceptible cytotoxicity”. The “cytotoxicity to B16F10 cells” value in the data set on B16F10 cells [5] was “not cytotoxic; also recorded: no perceptible cytotoxicity”.

With `Cc1c(C)c2c(c(C)c1O)CCC(C)(C(=O)O)O2` (stereo not drawn) [Trolox, reference compound], in data set [1], the “% ABTS^•+ scavenging” value came to 99%. Further, in data set [6], the “ROS-scavenging activity (SIN-1-induced ROS levels)” value is on record as “significantly reduced”.

In the case of `O=C1O[C@H]([C@@H](O)CO)C(O)=C1O` [Ascorbic acid, L-Ascorbic acid, reference compound], in data set [2], the “% DPPH radical-scavenging” value was 97%.

In the case of `O=C1/C(=C/c2ccc(O)c(O)c2)SC(=S)N1Cc1ccccc1` [Compound 2, (Z)-3-Benzyl-5-(3,4-dihydroxybenzylidene)-2-thioxothiazolidin-4-one], in data set [1], the “% ABTS^•+ scavenging” value amounted to 99%. In addition, the “% DPPH radical-scavenging” value in data set [2] is 95%. For the same compound, the “ROS-scavenging activity (SIN-1-induced ROS levels)” value in [6] is reported as “greater ROS-scavenging potency than Trolox”. The “cytotoxicity to B16F10 cells” value with B16F10 cells [5] was “cytotoxic at all tested concentrations”.

Values taken from PMC11820736, “Design, Synthesis, and Anti-Tyrosinase, Anti-Melanogenic, and Antioxidant Activities of Novel (Z)-3-Benzyl-5-Benzylidene-2-Thioxothiazolidin-4-One Analogs” (Molecules, 2025).
